Entries after “also recorded” stand apart in the source; their conditions may differ.
Tests used:
[1] = test system: patients with hypertension; details: cited from earlier work; for patients who developed diabetes: losartan compared with atenolol
Elderly = details: candesartan compared with placebo; nonsignificant; cited from earlier work
hypertensive population = details: captopril compared with a β-blocker or a diuretic; cited from earlier work
[2] = compared with metoprolol; cited from earlier work
[3] = test system: patients with left ventricular dysfunction; assay: Retrospective analysis of Montreal Heart Institute patients of the SOLVD trials: new-onset diabetes (FPG≧126 mg/dL at 2 visits); assay type: in vivo, human
Text: The patients from the Montreal Heart Institute who were randomized in the SOLVD trials were included in this study. SOLVD was a multicenter, double-blind, randomized, placebo-controlled trial that assessed the effect of the ACE inhibitor enalapril on survival in patients with left ventricular dysfunction (ejection fraction≦35%). The details of the trial have been described elsewhere.^12 Briefly, the prevention trial included 4228 patients with asymptomatic left ventricular dysfunction, and the treatment trial randomized 2569 patients with congestive heart failure from June 1986 to August 1991. Patients were randomized to enalapril (5 to 20 mg/day) or placebo. Exclusion criteria included age >80 years, unstable angina pectoris, myocardial infarction in the previous month, severe pulmonary disease, renal insufficiency (creatinine level>177 μmol/L [2 mg/dL]), and intolerance to ACE inhibitor or current ACE inhibitor use. Follow-up visits were scheduled 2 and 6 weeks after randomization and every 4 months until the end of the study, for a mean follow-up of 3.4 and 3.1 years for the treatment and prevention trials, respectively.
Baseline characteristics, past medical history, and medication profiles at the time of enrolment into the SOLVD trials were obtained from the SOLVD databases. Fasting plasma glucose (FPG) was not collected for research purposes in the SOLVD trials. However, follow-up of patients in SOLVD involved regular blood samples, including FPG, at almost every research visit. Accordingly, the medical file of each patient was reviewed, and FPG results were collected. Chart reviewers were blinded to treatment allocation.
A diagnosis of new onset diabetes during the follow-up period was defined according to the American Diabetes Association criteria^13 as a FPG≧126 mg/dL (7.0 mmol/L) at 2 different visits. For the purpose of the present study, the visits in which FPG≧126 occurred during infection, trauma, or acute myocardial infarction were not included.
Participants with diabetes at baseline (history of diabetes or FPG≧126 mg/dL at screening visit) were excluded. The study population was further divided among patients with impaired FPG at baseline (110 mg/dL[6.1 mmol/L]≦FPG<126mg/dL [7.0 mmol/L]) and those with normal FPG at baseline (FPG<110 mg/dL).
The baseline characteristic of the 2 groups were compared using Student's t test for continuous variables and the X^2 test for categorical variables. Incidence of diabetes in the 2 groups was compared with the X^2 test. Time to occurrence of diabetes during the follow-up was analyzed with Kaplan-Meier curves and compared with the log-rank test. To analyze the effect of the treatment (enalapril) on development of diabetes, a Cox regression analysis was used to take into account the effect of potential confounding baseline variables (age, sex, current smoking, history of hypertension, and weight) and time-dependent variables (systolic blood pressure; diastolic blood pressure; and use of β-blockers, diuretics, calcium-channel blockers, antiplatelet agents, or antiarrhythmics). Cox proportional-hazard models were performed for each variable, with treatment (enalapril) forced in all models. Variables with a P≦0.2 were included in a multivariate Cox proportional hazard model. […] Subgroup analyses were conducted with the X^2 test. In the particular subgroup of patients with impaired FPG at baseline, Kaplan-Meier curves were performed. Preliminary assumptions were verified before all analyses. P<0.05 was considered significant. All analyses were performed using SAS version 8.2 (SAS Institute, Inc).

hypertensive rats = details: cited from earlier work
[4] = test system: obese, hypertensive, and dyslipidemic patients; details: given for 12 weeks; cited from earlier work
[5] = test system: high-risk patients with no evidence of left ventricular dysfunction; details: cited from earlier work

For `CC(C)NCC(O)COc1ccc(CC(N)=O)cc1` (stereo not drawn) [atenolol], the “patients who developed diabetes” value [1] is given as 8%.
In the case of `CCOc1nc2cccc(C(=O)O)c2n1Cc1ccc(-c2ccccc2-c2nnn[nH]2)cc1` [candesartan], the “relative reduction in the incidence of diabetes” value (Elderly) is given as 20%.
For `C[C@H](CS)C(=O)N1CCC[C@H]1C(=O)O` [captopril], the “relative risk of developing diabetes (RR)” value (hypertensive population) is given as 0.86.
In the case of `COc1ccccc1OCCNCC(O)COc1cccc2[nH]c3ccccc3c12` (stereo not drawn) [carvedilol], the “effect on insulin sensitivity” value [2] is listed as “favorable effect on insulin sensitivity”.
For `CCOC(=O)[C@H](CCc1ccccc1)N[C@@H](C)C(=O)N1CCC[C@H]1C(=O)O` [enalapril], the “probability of remaining free from diabetes during follow-up” value ([3]; Kaplan-Meier, enalapril vs placebo, P<0.0001, FIG. 1) was “significantly higher”, the “New cases of diabetes, %” value ([3]; Prevention arm of the trial (n = 198)) was 6.0% and the “Absolute Risk Reduction” value ([3]; Prevention arm of the trial (n = 198), enalapril vs placebo) was 13.4%. The “New cases of diabetes, %” value ([3]; Treatment arm of the trial (n = 93)) was 5.7%, the “Absolute Risk Reduction” value ([3]; Treatment arm of the trial (n = 93), enalapril vs placebo) was 24.3% and the “relative risk [RR] of new-onset diabetes” value ([3]; enalapril vs placebo, total population) was 0.26. The “New cases of diabetes, %” value ([3]; impaired FPG at baseline, IFG (n = 55)) was 3.3%, the “Absolute Risk Reduction” value ([3]; impaired FPG at baseline, IFG (n = 55), enalapril vs placebo) was 45% and the “Absolute Risk Reduction” value ([3]; impaired FPG at baseline, IFG (n = 55), enalapril vs placebo, listed as Enalapril) was 44.7%. The “Hazard Ratio for development of diabetes” value ([3]; multivariate analysis, Cox regression model, 95% confidence intervals 0.10 to 0.46) was 0.22, the “New cases of diabetes, %” value ([3]; normal FPG at baseline, NFG (n = 236)) was 6.6% and the “Absolute Risk Reduction” value ([3]; normal FPG at baseline, NFG (n = 236), enalapril vs placebo) was 10.7%. For the same compound, the “risk of developing diabetes (in words)” value ([3]; patients with left ventricular systolic dysfunction) was “markedly reduced the risk of developing diabetes; also recorded: markedly reduces the risk of developing diabetes mellitus”, the “New cases of diabetes, %” value ([3]; total population (n = 291), enalapril 5 to 20 mg/day, mean follow-up 2.9 years) was 5.9% and the “Absolute Risk Reduction” value ([3]; total population (n = 291), enalapril vs placebo) was 16.5%. For the same compound, the “number of patients to treat to prevent one new case of diabetes” value ([3]; treated for 2.9 years) was 6 patients, the insulin sensitivity (hypertensive rats) was “improved insulin sensitivity” and the insulin sensitivity [4] was “improved insulin sensitivity”.
In the case of `CCCCc1nc(Cl)c(CO)n1Cc1ccc(-c2ccccc2-c2nn[nH]n2)cc1` [losartan], the “patients who developed diabetes” value [1] is listed as 6% and the “RR of developing diabetes” value ([1]; losartan vs atenolol) is listed as 0.75.
In the case of `CCOC(=O)[C@H](CCc1ccccc1)N[C@@H](C)C(=O)N1[C@H](C(=O)O)C[C@@H]2CCC[C@@H]21` [ramipril], the “RR of developing diabetes” value ([5]; ramipril vs placebo) is listed as 0.66, the incidence of diabetes ([5]; treatment period of 4.5 years) is listed as 3.6% and the “reduction of the relative risk of developing diabetes” value ([5]; treatment period of 4.5 years, ramipril vs placebo) is listed as 34%.

From patent publication US20040259932A1, “Method and compound to reduce the incidence of diabetes in a subject with chronic heart failure” (priority 2003, published 2004)
